# In paper PMC7604503, “Cyclic peptides can engage a single binding pocket through highly divergent modes” (Proceedings of the National Academy of Sciences of the …, 2020):
# Where a SMILES comes first, the peptide text is derived from it. Bridges are numbered along the chain shown (N, C = ends).
# Experiments:
# Experiment in all cases: BROMOscan competition binding assay (BromoMAX, Eurofins DiscoverX)
# CREBBP = biological target: T1, CREBBP (Homo sapiens, UniProt Q92793); details: for Percent Control CREBBP: compound concentration 1000 nM, lower percentage control = stronger affinity
# T1 construct: purchased Eurofins DiscoverX (BROMOscan, BromoMAX)
# TRIM33(PHD,Bromo.) = test system: TRIM33(PHD,Bromo.); parameters: species or system human; details: compound concentration 1000 nM; lower percentage control = stronger affinity
# BRD9 = biological target: T2, BRD9 (Homo sapiens, UniProt Q9H8M2); details: for Percent Control BRD9: compound concentration 1000 nM, lower percentage control = stronger affinity
# T2 construct: purchased Eurofins DiscoverX (BROMOscan, BromoMAX)
# T2 sequence (Q9H8M2 1-597): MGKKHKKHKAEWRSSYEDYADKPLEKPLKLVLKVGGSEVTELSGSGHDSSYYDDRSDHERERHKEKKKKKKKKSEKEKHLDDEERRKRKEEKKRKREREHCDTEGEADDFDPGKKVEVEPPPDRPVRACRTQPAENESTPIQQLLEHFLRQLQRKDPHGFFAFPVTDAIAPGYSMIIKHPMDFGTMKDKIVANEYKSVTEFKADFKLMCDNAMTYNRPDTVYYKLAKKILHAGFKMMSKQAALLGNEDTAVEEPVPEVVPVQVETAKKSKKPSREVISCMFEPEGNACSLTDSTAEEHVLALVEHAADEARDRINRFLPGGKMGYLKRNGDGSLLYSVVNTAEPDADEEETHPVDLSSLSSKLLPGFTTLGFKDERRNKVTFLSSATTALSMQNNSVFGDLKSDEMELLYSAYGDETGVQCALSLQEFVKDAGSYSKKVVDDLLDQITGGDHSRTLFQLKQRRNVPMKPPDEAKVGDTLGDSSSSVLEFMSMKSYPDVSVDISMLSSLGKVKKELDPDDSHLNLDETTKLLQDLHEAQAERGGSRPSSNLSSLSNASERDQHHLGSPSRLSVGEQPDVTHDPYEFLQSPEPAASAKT
# PBRM1(2) = biological target: T3, PBRM1(2) (Homo sapiens, UniProt Q86U86); details: for Percent Control PBRM1(2): compound concentration 1000 nM, lower percentage control = stronger affinity
# T3 construct: PBRM1(2); purchased Eurofins DiscoverX (BROMOscan, BromoMAX)
# T3 sequence (Q86U86 178-291 limits assumed): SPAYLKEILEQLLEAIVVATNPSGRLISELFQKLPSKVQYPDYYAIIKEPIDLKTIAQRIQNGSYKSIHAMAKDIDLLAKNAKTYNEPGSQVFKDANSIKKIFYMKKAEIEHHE
# BAZ2B = biological target: T4, BAZ2B (Homo sapiens, UniProt Q9UIF8); details: for Percent Control BAZ2B: compound concentration 1000 nM, lower percentage control = stronger affinity
# T4 construct: purchased Eurofins DiscoverX (BROMOscan, BromoMAX)
# T4 sequence (Q9UIF8 whole entry): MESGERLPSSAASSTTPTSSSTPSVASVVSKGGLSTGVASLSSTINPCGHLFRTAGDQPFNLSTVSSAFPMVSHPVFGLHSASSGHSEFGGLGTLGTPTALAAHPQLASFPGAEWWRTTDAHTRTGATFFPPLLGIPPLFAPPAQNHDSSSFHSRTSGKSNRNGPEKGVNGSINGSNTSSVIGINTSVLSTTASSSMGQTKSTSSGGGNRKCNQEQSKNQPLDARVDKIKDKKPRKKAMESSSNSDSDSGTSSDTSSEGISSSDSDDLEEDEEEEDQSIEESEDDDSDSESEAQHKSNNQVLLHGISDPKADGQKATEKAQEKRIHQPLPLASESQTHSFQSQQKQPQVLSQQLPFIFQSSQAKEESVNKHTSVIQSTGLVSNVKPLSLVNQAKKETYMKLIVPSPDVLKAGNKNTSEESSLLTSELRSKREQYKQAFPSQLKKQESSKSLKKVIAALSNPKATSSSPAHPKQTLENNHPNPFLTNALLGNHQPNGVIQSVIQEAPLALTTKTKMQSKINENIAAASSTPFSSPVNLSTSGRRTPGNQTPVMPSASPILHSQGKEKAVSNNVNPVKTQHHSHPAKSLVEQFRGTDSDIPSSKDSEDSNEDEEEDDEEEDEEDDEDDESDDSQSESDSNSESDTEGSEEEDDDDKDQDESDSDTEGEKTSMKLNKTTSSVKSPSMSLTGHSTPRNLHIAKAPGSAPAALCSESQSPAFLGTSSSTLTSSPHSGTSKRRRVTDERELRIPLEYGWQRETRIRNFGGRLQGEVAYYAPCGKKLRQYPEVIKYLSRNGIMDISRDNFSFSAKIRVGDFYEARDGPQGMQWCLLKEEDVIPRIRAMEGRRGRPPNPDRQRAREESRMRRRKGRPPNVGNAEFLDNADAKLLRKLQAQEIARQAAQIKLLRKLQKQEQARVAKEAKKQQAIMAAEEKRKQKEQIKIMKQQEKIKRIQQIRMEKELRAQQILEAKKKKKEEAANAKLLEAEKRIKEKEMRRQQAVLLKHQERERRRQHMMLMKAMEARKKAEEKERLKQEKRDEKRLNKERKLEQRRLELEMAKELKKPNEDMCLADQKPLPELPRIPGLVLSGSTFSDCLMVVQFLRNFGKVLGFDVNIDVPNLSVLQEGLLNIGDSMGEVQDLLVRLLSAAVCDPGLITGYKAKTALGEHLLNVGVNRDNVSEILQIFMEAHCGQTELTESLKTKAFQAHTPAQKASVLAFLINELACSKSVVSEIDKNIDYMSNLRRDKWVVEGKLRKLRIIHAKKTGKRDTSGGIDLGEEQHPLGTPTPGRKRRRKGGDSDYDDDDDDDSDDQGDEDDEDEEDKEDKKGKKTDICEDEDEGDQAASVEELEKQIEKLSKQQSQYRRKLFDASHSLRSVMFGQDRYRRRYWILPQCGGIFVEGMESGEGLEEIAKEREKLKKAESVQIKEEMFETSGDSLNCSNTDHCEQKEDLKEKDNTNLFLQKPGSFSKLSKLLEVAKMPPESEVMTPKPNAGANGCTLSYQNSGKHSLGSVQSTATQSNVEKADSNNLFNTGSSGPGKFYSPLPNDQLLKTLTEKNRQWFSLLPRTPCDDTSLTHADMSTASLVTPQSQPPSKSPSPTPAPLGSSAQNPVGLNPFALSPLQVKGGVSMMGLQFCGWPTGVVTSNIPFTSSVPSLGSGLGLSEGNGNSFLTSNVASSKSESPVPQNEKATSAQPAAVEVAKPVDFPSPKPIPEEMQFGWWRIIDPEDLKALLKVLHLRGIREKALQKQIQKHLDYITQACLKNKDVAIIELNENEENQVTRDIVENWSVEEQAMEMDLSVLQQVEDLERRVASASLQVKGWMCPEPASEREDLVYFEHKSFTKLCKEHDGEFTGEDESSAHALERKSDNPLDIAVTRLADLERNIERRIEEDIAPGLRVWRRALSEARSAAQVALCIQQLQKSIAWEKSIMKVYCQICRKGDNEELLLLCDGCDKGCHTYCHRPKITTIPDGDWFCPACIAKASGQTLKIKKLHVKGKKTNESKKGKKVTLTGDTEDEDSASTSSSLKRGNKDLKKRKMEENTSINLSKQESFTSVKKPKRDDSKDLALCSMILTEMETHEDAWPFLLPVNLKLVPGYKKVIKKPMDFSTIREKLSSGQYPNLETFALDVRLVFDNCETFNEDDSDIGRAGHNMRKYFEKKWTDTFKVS
# BRD1 = biological target: T5, BRD1 (Homo sapiens, UniProt O95696); details: for Percent Control BRD1: compound concentration 1000 nM, lower percentage control = stronger affinity
# T5 construct: purchased Eurofins DiscoverX (BROMOscan, BromoMAX)
# T5 sequence (O95696 1-1058): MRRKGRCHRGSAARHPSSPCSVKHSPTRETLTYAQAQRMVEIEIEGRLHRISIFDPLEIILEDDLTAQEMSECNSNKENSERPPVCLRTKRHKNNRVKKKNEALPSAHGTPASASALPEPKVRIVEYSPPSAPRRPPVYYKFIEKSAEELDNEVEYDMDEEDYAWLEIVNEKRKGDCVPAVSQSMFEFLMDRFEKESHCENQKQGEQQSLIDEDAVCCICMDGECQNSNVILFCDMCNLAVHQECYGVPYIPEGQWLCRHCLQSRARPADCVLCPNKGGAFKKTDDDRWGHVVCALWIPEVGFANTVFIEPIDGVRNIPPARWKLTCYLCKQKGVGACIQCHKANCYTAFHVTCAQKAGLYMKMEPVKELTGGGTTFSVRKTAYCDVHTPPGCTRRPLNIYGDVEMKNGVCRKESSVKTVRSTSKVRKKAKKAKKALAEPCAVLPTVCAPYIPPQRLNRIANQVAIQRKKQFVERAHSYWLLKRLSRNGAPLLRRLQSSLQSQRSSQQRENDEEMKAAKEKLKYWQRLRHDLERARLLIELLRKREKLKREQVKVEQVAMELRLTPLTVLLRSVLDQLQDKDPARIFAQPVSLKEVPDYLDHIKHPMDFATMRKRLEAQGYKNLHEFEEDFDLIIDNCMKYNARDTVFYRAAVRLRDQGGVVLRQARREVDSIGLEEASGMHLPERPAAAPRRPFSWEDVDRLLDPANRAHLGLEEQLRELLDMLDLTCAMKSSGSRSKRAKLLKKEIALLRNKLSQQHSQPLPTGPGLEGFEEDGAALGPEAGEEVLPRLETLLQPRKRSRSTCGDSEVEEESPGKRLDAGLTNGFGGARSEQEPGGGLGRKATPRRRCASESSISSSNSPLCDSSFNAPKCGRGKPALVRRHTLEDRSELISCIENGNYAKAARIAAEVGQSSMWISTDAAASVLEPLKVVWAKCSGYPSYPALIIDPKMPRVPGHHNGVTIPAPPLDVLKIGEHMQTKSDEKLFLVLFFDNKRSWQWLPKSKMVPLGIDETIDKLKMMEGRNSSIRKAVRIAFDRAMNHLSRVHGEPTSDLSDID
# BRD4(1) = biological target: T6, BRD4(1) (Homo sapiens, UniProt O60885); details: for Percent Control BRD4(1): compound concentration 1000 nM, lower percentage control = stronger affinity
# T6 construct: BRD4(1); purchased Eurofins DiscoverX (BROMOscan, BromoMAX)
# CECR2 = biological target: T7, CECR2 (Homo sapiens, UniProt Q9BXF3); details: for Percent Control CECR2: compound concentration 1000 nM, lower percentage control = stronger affinity
# T7 construct: purchased Eurofins DiscoverX (BROMOscan, BromoMAX)
# T7 sequence (Q9BXF3 whole entry): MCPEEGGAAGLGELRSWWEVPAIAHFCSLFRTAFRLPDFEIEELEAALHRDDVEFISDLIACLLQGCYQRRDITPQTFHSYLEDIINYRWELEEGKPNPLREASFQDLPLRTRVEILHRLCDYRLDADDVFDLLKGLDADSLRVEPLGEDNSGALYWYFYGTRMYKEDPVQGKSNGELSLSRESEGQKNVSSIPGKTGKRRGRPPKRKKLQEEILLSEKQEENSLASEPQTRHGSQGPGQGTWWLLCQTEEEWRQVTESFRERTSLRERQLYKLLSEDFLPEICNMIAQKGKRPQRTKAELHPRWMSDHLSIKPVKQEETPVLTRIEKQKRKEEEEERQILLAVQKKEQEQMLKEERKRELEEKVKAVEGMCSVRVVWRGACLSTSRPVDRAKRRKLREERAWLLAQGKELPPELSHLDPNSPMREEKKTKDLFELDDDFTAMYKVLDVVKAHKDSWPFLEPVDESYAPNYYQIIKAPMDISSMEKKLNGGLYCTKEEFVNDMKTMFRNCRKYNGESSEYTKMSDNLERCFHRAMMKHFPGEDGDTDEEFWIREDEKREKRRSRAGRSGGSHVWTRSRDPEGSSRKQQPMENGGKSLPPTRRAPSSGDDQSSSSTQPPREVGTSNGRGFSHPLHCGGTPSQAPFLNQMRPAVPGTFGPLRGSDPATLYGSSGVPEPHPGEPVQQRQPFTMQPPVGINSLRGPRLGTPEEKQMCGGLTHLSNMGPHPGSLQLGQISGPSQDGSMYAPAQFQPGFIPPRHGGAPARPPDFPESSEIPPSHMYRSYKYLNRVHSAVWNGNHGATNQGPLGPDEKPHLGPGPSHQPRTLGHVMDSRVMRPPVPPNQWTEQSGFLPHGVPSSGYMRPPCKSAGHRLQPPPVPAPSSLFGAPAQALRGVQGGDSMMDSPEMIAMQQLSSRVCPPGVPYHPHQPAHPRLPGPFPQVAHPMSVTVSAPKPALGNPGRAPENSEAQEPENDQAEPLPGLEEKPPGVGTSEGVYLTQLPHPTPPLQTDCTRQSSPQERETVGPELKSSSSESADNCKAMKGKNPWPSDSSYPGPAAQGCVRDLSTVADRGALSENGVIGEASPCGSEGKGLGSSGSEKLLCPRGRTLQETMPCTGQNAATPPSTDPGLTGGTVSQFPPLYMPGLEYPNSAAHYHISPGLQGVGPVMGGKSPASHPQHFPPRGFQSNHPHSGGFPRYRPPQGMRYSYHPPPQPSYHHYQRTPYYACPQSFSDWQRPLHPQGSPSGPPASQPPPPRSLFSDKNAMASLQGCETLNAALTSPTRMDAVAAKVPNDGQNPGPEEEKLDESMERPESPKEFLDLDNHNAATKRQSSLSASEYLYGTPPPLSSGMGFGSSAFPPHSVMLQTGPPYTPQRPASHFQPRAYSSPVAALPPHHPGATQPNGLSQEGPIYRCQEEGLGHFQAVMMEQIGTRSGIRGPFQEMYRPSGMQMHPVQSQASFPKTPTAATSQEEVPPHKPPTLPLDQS
# PBRM1(5) = biological target: T8, PBRM1(5) (Homo sapiens, UniProt Q86U86); details: for Percent Control PBRM1(5): compound concentration 1000 nM, lower percentage control = stronger affinity
# T8 construct: PBRM1(5); purchased Eurofins DiscoverX (BROMOscan, BromoMAX)
# T8 sequence (Q86U86 645-766 limits assumed): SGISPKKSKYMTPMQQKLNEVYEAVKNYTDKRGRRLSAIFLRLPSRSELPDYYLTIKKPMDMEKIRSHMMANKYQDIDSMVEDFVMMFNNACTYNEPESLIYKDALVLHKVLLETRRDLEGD
Structure (SMILES),Percent Control CREBBP (CREBBP) [%],"Percent Control TRIM33(PHD,Bromo.) (TRIM33(PHD,Bromo.)) [%]",Percent Control BRD9 (BRD9) [%],Percent Control PBRM1(2) (PBRM1(2)) [%],Percent Control BAZ2B (BAZ2B) [%],Percent Control BRD1 (BRD1) [%],Percent Control BRD4(1) (BRD4(1)) [%],Percent Control CECR2 (CECR2) [%],Percent Control PBRM1(5) (PBRM1(5)) [%],remaining binding at 1 µM (CREBBP; read-out: Percent Control CREBBP) [%],percent of control binding at 1 µM (BRD9) [%],remaining binding at 1 µM (PBRM1(2); read-out: Percent Control PBRM1(2)) [%],remaining binding at 1 µM (BAZ2B; read-out: Percent Control BAZ2B) [%],percent of control binding at 1 µM (BRD1) [%],remaining binding at 1 µM (BRD4(1); read-out: Percent Control BRD4(1)) [%],percent of control binding at 1 µM (CECR2) [%],remaining binding at 1 µM (PBRM1(5); read-out: Percent Control PBRM1(5)) [%]
CC[C@H](C)[C@@H]1NC(=O)[C@H]([C@@H](C)O)NC(=O)[C@H](CCCCN)NC(=O)[C@H](Cc2c[nH]c3ccccc23)NC(=O)CSC[C@@H](C(N)=O)NC(=O)[C@H](CCC(N)=O)NC(=O)[C@H](CCCCNC(C)=O)NC(=O)[C@H]([C@@H](C)O)NC(=O)[C@H](CCCNC(=N)N)NC(=O)[C@H](Cc2c[nH]c3ccccc23)NC(=O)[C@H]([C@@H](C)O)NC(=O)[C@H](CCCCNC(C)=O)NC(=O)CNC(=O)[C@H](CCCCNC(C)=O)NC1=O [3.1B] ({CH2CO}-WKTIK(Ac)GK(Ac)TWRTK(Ac)QC-NH2; thioether N-14),100,100,100,100,100,100,0.2,100,100,,,,,,,,
CC[C@H](C)[C@H](NC(=O)[C@H](CCCNC(=N)N)NC(=O)[C@H](CCCCNC(C)=O)NC(=O)[C@H](CCCNC(=N)N)NC(=O)[C@H](CC(C)C)NC(=O)[C@@H]1CSCC(=O)N[C@@H](Cc2c[nH]c3ccccc23)C(=O)N[C@@H](CCCCNC(C)=O)C(=O)NCC(=O)N[C@@H](Cc2ccc(O)cc2)C(=O)N[C@@H](CC(C)C)C(=O)N1)C(=O)N[C@@H](CCC(N)=O)C(=O)N[C@@H](CCCNC(=N)N)C(=O)N[C@H](C(=O)N[C@@H](Cc1ccc(O)cc1)C(=O)N[C@@H](CC(N)=O)C(N)=O)[C@@H](C)O [4.2C] ({CH2CO}-WK(Ac)GYLCLRK(Ac)RIQRTYN-NH2; thioether N-6),,100,,,,,,,,100,89,100,99,84,96,99,90
CC[C@H](C)[C@@H]1NC(=O)[C@H](Cc2c[nH]c3ccccc23)NC(=O)[C@H](Cc2c[nH]c3ccccc23)NC(=O)CSC[C@@H](C(N)=O)NC(=O)CNC(=O)[C@H](CCCCNC(C)=O)NC(=O)[C@H](CCCCN)NC(=O)[C@H](C(C)C)NC(=O)[C@H](CCCCNC(C)=O)NC(=O)[C@@H]2CCCN2C(=O)[C@H]([C@@H](C)CC)NC1=O [3.1C] ({CH2CO}-WWIIPK(Ac)VKK(Ac)GC-NH2; thioether N-11),100,100,95,100,100,97,0,99,89,,,,,,,,
